# Values joined by “and” are separate entries in the source; they are usually repeats but may differ in a detail not shown here. Equal entries are not always repeated. Marks after values point to notes of the source that are not given here.
# Experiments:
# [1] = test system: FITC-induced mouse atopic dermatitis model; test: FITC-induced mouse atopic dermatitis model: change in ear thickness; format: in vivo, Balb/c mice; conditions: 20 mg/dose topical twice a day; for Ear thickness Day 5 / Ear thickness Day 6 / Ear thickness Day 12 / Ear thickness Day 13 / ΔEar thickness Day 6-Day 5 / ΔEar thickness Day 13-Day 5: right ear; for Inhibitory rate% (Day 13): Δ ear thickness vs model group
# Text: • 1) Animals: female Balb/c mice, specific pathogen-free (SPF), aged 6-7 weeks at grouping, with 10 mice per group. The animals were provided by Shanghai Jihui Laboratory Animal Care Co., Ltd. • 2) Reagents, positive drugs and test drugs
# FITC induction method: experimental animals were subjected to examination in an adaptation period and weight screening after examined to be qualified. The animals were randomly divided into 6 experimental groups according to the weight, including a normal group, a model group, a clobetasol propionate ointment group, a 0.5% Compound I group, a 1% Compound I group and a 2% Compound I group, with 10 mice in each group. On day 0 and day 1, after all the experimental animals were administered for 2 hours, the animals were anesthetized with zoletil (25 mg/kg) and xylazine (5 mg/kg), and then subjected to sensitization operation at the abdomen (a sensitized part). The abdominal part of the experimental animal at about 3×4 cm was depilated before sensitization, and then 0.5% FITC (dissolved in dibutyl phthalate/acetone solution) was applied to the alopecic areas of the abdomens of the experimental animals in model group for sensitization. An equal volume of dibutyl phthalate/acetone was given to the alopecic areas of the abdomens of the experimental animals in the normal-blank gel group.
# On day 5 and day 12, all the experimental animals were anesthetized with 1-4% isoflurane (all subsequent measurements on ear thickness were performed under anesthesia with isoflurane), and the thickness of the right-side ear margins of the experimental animals was measured as a baseline. On day 5 and day 12, 0.5% FITC was applied to both the inner and outer sides of the right ears of the experimental animals in model group for challenge treatment. An equal volume of dibutyl phthalate/acetone solution was given to the experimental animals in the normal-blank gel group.
# On day 6 and day 13, 24 hours after each FITC challenge, the thickness of the right-side ear margins of all the experimental animals was measured. Ear swelling response was determined by the change in the ear thickness before and after FITC challenge measured with a digital display thickness gauge, the measurement positions were basically kept constant, and the mean change in the ear thickness (ΔT±S.E.M.) was recorded for each group.
# [2] = test system: imiquimod-induced C3H/HeJ mice alopecia areata model; test: Imiquimod-induced mouse alopecia areata model: hair growth; format: in vivo; conditions: for Hair growth rate (%): listed as test drug
# Method: • 1) Animals: female C3H/He mice, SPF, aged 6-8 weeks at grouping. The animals were provided by Beijing Viewsolid Biotech. • 2) Reagents, positive drugs and test drugs
# After one week of adaptive feeding of C3H/HeJ mice: modeling was performed by applying imiquimod ointment to the neck, 3 times a week. The mice were carefully taken out, and about 0.05 g of 5% imiquimod ointment was dipped with a clean medical cotton swab and then applied evenly to the skin on the neck over a range of about 1.5 cm×1.5 cm. Before each application, the local part was cleaned by normal saline to remove the residual drug in the previous time. The continuous administration time was no longer than 10 weeks. When alopecia areata with an area size > 1 cm×1 cm was formed at the administration part, the administration was stopped, proving that a preparation model was successful. The mice in the normal control group were modeled by using blank ointment (vaseline ointment).
# During the period from the first administration to the end of the last administration after the alopecia areata modeling was successful, the alopecia areata part of each mouse was photographed once every 3 days, the photographing distance, angle and magnification times were fixed, and the hair growth of the alopecic areas on the backs of the mice was recorded.
# Visual quantification of the alopecia area images was performed using ImageJ software. The hair growth area (a) and hair loss area (b) were calculated. The hair growth rate was counted and analyzed: hair growth rate (%) = (a/b)* 100%. The newly grown hairs at the alopecia areata part of the mice in each group were scored based on the hair growth rate. Table 14 Scoring criteria of newly grown hairs
# [3] = test system: monobenzone-induced mouse vitiligo model; test: Monobenzone-induced mouse vitiligo model: skin pathological analysis of melanin-containing hair follicles; format: in vivo, C57BL/6 mice; conditions: for Number of melanin-containing hair follicles / Proportion of melanin-containing hair follicles (%): 30 mg topical twice a day for 50 days
# Method: The mice were euthanized within 2-4 hours after the last administration, and approximately 1 cm^2 of the skin in the center of the depilated part of the mice was taken and fixed with 4% paraformaldehyde. The animal skin tissues were fixed with 4% paraformaldehyde, dehydrated, embedded with paraffin, sectioned and then subjected to HE staining. The stained sections were photographed by white light panoramic scanning, histopathological changes of the skin tissues and inflammatory cell infiltration were observed, and the number of melanin-containing hair follicles and/or the proportion of the melanin-containing hair follicles in the skin were quantitatively analyzed. The panoramic scanning files were opened by using CaseViewer software, a picture view with the length of about 3.8 mm was randomly selected, and the pictures were saved. The number of all the hair follicles and the number of the melanin-containing hair follicles in the picture were counted respectively by using ipwin32 software. The proportion of the melanin-containing hair follicles was calculated according to the following formula: Proportion of melanin-containing hair follicles = number of melanin-containing follicles/number of all follicles
# [4] = test system: FITC-induced mouse atopic dermatitis model; test: FITC-induced mouse atopic dermatitis model: histopathological scoring of ears; format: in vivo, Balb/c mice; conditions: pathological score (0-4), right ear, day 13, 20 mg/dose topical twice a day
# Text: On day 13, all the experimental animals were euthanized by CO2 and cervical dislocation, and then the right ears were collected and fixed in 10% formalin for histopathological analysis.
# After the ear tissues were embedded with paraffin, each ear tissue was sliced into 3-5 µm sections. After HE staining, the sections were subjected to routine histopathological evaluation and ear tissue thickness measurement. Table 4 Histopathological scoring criteria
smiles,measurement,setting,value
CN(c1ncnc2[nH]ccc12)[C@@H]1CCc2cc(C#N)nn2C1 [compound I],Ear thickness Day 5,[1]; 0.5% gel,0.17 mm
same,Ear thickness Day 6,[1]; 0.5% gel,0.19 mm
same,Ear thickness Day 12,[1]; 0.5% gel,0.18 mm
same,Ear thickness Day 13,[1]; 0.5% gel,0.19 mm
same,ΔEar thickness Day 6-Day 5,[1]; 0.5% gel,0.0250 mm
same,ΔEar thickness Day 13-Day 5,[1]; 0.5% gel,0.0170 ± 0.0033 mm
same,ΔEar thickness Day 13-Day 5,"[1]; 0.5% gel, listed as compound 1",0.0170 mm
same,Inhibitory rate% (Day 13),[1]; 0.5% gel,82.65%
same,Inhibitory rate% (Day 13),"[1]; 0.5% gel, listed as compound 1",82.65%****
same,Ear thickness Day 5,[1]; 1% gel,0.17 mm
same,Ear thickness Day 6,[1]; 1% gel,0.20 mm
same,Ear thickness Day 12,[1]; 1% gel,0.18 mm
same,Ear thickness Day 13,[1]; 1% gel,0.19 mm
same,ΔEar thickness Day 6-Day 5,[1]; 1% gel,0.0280 mm
same,ΔEar thickness Day 13-Day 5,[1]; 1% gel,0.0250 ± 0.0043 mm and 0.0250 mm
same,Ear thickness Day 5,[1]; 2% gel,0.17 mm
same,Ear thickness Day 6,[1]; 2% gel,0.20 mm
same,Ear thickness Day 12,[1]; 2% gel,0.18 mm
same,Ear thickness Day 13,[1]; 2% gel,0.20 mm
same,ΔEar thickness Day 6-Day 5,[1]; 2% gel,0.0260 mm
same,ΔEar thickness Day 13-Day 5,[1]; 2% gel,0.0250 ± 0.0017 mm and 0.0250 mm
same,Hair growth rate (%),"[2]; 3 mg/kg oral by gavage twice a day for one month, Day 30",71.62 ± 5.56%
same,amelioration effect (comparison),"[2]; 3 mg/kg oral, hair growth at alopecic area, Day 30",equivalent to that of the positive control drug at the dose of 10 mg/kg
same,Hair growth rate (%),"[2]; 10 mg/kg oral by gavage twice a day for one month, Day 30",83.93 ± 5.58%
same,therapeutic effect (comparison),"[2]; mouse alopecia areata model, oral",superior to that of the positive drug baricitinib
same,therapeutic effect (comparison),"[3]; 1% and 2% compound I gel, reduction of melanin-containing hair follicles in vitiligo model",equivalent to that of 1.5% ruxolitinib and superior to that of 0.03% tacrolimus
same,Number of melanin-containing hair follicles,[3]; 1% compound I gel,30.3
same,Proportion of melanin-containing hair follicles (%),[3]; 1% compound I gel,29.7 ± 9.1% and 29.7%
same,Number of melanin-containing hair follicles,"[3]; 1% compound I gel, listed as Compound I",30.3 ± 14.8
same,"number of the melanin-containing hair follicles, increase compared to the blank preparation group",[3]; 2% compound I gel,37.9%
same,"number of the melanin-containing hair follicles, times that of the model control group",[3]; 2% compound I gel,about 4 times
same,proportion of the melanin-containing hair follicles relative to the model control group,[3]; 2% compound I gel,about twice
same,Number of melanin-containing hair follicles,[3]; 2% compound I gel,26.9*
same,Proportion of melanin-containing hair follicles (%),[3]; 2% compound I gel,30.6 ± 6.2% and 30.6%
same,Number of melanin-containing hair follicles,"[3]; 2% compound I gel, listed as Compound I",26.9 ± 7.4
same,therapeutic effect (comparison),"[3]; 2% compound I gel, proportion of melanin-containing hair follicles",equivalent to that of the ruxolitinib ointment
same,Enlargement of follicular orifice,[4]; 1% gel,1.50 ± 0.17 and 1.50
same,Enlargement of follicular orifice,[4]; 2% gel,1.30 ± 0.26 and 1.30

# From patent publication EP4778522A1, “USE OF PYRROLOPYRIMIDINE COMPOUND AND COMPOSITION THEREOF” (Guangzhou Joyo Pharmatech Co., Ltd., priority 2023, dated 2025)
